These results are taken from PubChem BioAssay AID330 (DTP/NCI, 2004).

Each structure is given as a SMILES string. Values joined by “and” are separate entries in the source; they are usually repeats but may differ in a detail not shown here. Identical values can stand only once. Toxic doses and inconclusive results are not listed. Peptide text beside a SMILES is read from it. * marks the point of attachment. Cbz = O=C(OCc1ccccc1)*; Bn = c1ccc(C*)cc1

The test system of the experiment is P388 leukemia ip, CD2F1 mice, survival T/C. Kind of experiment: NCI In Vivo Anticancer Drug Screen. Data for tumor model P388 Leukemia (intraperitoneal) in CD2F1 (CDF1) mice. The note with it: endpoint: median survival time, higher = longer survival. Summed up:
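Mice carrying the transplanted tumor received test compound or vehicle. Survival was recorded in each group, and the value is the treated-group measurement divided by that of the vehicle-treated control group.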

[1] abbreviates: dose: 100.0 mg/kg/injection, schedule: Q01DX009 (ip), vehicle: saline with Tween-80.
Setting [2] is: dose: 200.0 mg/kg/injection, schedule: Q01DX009 (ip), vehicle: saline with Tween-80.
The mark [3] stands for this setting: dose: 50.0 mg/kg/injection, schedule: Q01DX009 (ip), vehicle: saline.
Where [4] appears, read: dose: 25.0 mg/kg/injection, schedule: Q01DX009 (ip), vehicle: saline with Tween-80.
Where [5] appears, read: dose: 50.0 mg/kg/injection, schedule: Q01DX005 (ip), vehicle: saline with Tween-80.
[6] abbreviates: dose: 100.0 mg/kg/injection, schedule: Q01DX005 (ip), vehicle: saline with Tween-80.
The mark [7] stands for this setting: dose: 200.0 mg/kg/injection, schedule: Q01DX005 (ip), vehicle: saline with Tween-80.
The mark [8] stands for this setting: dose: 60.0 mg/kg/injection, schedule: Q01DX005 (ip), vehicle: saline with Tween-80.
Setting [9] is: dose: 120.0 mg/kg/injection, schedule: Q01DX005 (ip), vehicle: saline with Tween-80.
Setting [10] is: dose: 240.0 mg/kg/injection, schedule: Q01DX005 (ip), vehicle: saline with Tween-80.
The mark [11] stands for this setting: dose: 50.0 mg/kg/injection, schedule: Q01DX005 (ip), vehicle: Klucel (hydroxypropylcellulose) (HPC).
The mark [12] stands for this setting: dose: 50.0 mg/kg/injection, schedule: Q01DX009 (ip), vehicle: Klucel (hydroxypropylcellulose) (HPC).
Setting [13] is: dose: 100.0 mg/kg/injection, schedule: Q01DX009 (ip), vehicle: Klucel (hydroxypropylcellulose) (HPC).
Where [14] appears, read: dose: 200.0 mg/kg/injection, schedule: Q01DX009 (ip), vehicle: Klucel (hydroxypropylcellulose) (HPC).
[15] abbreviates: dose: 100.0 mg/kg/injection, schedule: Q01DX005 (ip), vehicle: Klucel (hydroxypropylcellulose) (HPC).
[16] abbreviates: dose: 200.0 mg/kg/injection, schedule: Q01DX005 (ip), vehicle: Klucel (hydroxypropylcellulose) (HPC).
[17] abbreviates: dose: 50.0 mg/kg/injection, schedule: Q01DX009 (ip), vehicle: saline with Tween-80.

Consider `CC(=O)c1ccc2c(c1)[nH]c1ccccc12`, for which the T/C runs as follows: under setting [1], 86 % of control; under setting [2], 90 % of control; (dose: 400.0 mg/kg/injection, schedule: Q01DX009 (ip), vehicle: saline with Tween-80) 90 % of control.
On to `Cc1ccccc1-n1c(SCC(=O)NC(=O)Nc2cccc(Cl)c2)nc2c(Br)cc(Br)cc2c1=O`, for which the T/C is 99 % of control (dose: 60.0 mg/kg/injection, schedule: Q01DX005 (ip), vehicle: Klucel (hydroxypropylcellulose) (HPC)); 101 % of control (dose: 120.0 mg/kg/injection, schedule: Q01DX005 (ip), vehicle: Klucel (hydroxypropylcellulose) (HPC)); 87 % of control (dose: 240.0 mg/kg/injection, schedule: Q01DX005 (ip), vehicle: Klucel (hydroxypropylcellulose) (HPC)).
`C[N+](C)(C)CCC(=O)c1cccc([N+](=O)[O-])c1`: the T/C by setting is: (dose: 12.5 mg/kg/injection, schedule: Q01DX009 (ip), vehicle: saline) 101 % of control; (dose: 25.0 mg/kg/injection, schedule: Q01DX009 (ip), vehicle: saline) 97 % of control; under setting [3], 108 % of control and 97 % of control.
Consider `CN(C)c1ccc(-c2cccc[n+]2C)cc1`, for which the T/C runs as follows: (dose: 1.5 mg/kg/injection, schedule: Q01DX009 (ip), vehicle: saline) 103 % of control; (dose: 3.0 mg/kg/injection, schedule: Q01DX009 (ip), vehicle: saline) 108 % of control; (dose: 6.0 mg/kg/injection, schedule: Q01DX009 (ip), vehicle: saline) 109 % of control.
For `CSC(=S)NN=C1CCCC1`, the T/C (dose: 12.5 mg/kg/injection, schedule: Q01DX009 (ip), vehicle: saline with Tween-80) was 101 % of control and the T/C under setting [4] is 101 % of control.
For `COC(=O)c1cc(C2OC3OC(C)(C)OC3C2OC)nn1-c1ccc([N+](=O)[O-])cc1` (stereo not drawn), the T/C is 109 % of control under setting [5], 100 % of control under setting [6] and 104 % of control under setting [7].
Consider `Cc1cc(N/N=C/c2ccccn2)nc2c(C)cccc12`, for which the T/C was 90 % of control under setting [5], 91 % of control under setting [6] and 100 % of control under setting [7].
For the compound `Nc1nc(-c2cc(-c3cccc([N+](=O)[O-])c3Cl)nc(N)n2)cc(-c2cccc([N+](=O)[O-])c2Cl)n1`, the T/C was 105 % of control under setting [8], 101 % of control under setting [9] and 100 % of control under setting [10].
For the compound `CCOC(=O)C1CC(=O)c2ccc(OC)c(OC)c2C1` (stereo not drawn), the T/C by setting is: (dose: 25.0 mg/kg/injection, schedule: Q01DX009 (ip), vehicle: other) 103 % of control; (dose: 50.0 mg/kg/injection, schedule: Q01DX009 (ip), vehicle: other) 100 % of control; (dose: 100.0 mg/kg/injection, schedule: Q01DX009 (ip), vehicle: other) 94 % of control; (dose: 200.0 mg/kg/injection, schedule: Q01DX009 (ip), vehicle: other) 94 % of control; (dose: 400.0 mg/kg/injection, schedule: Q01DX009 (ip), vehicle: other) 98 % of control.
Consider `COc1cc([C@@H]2c3cc4c(cc3[C@H](O)[C@H]3COC(=O)[C@H]23)OCO4)cc(OC)c1OC`, for which the T/C is, setting by setting: (dose: 0.5 mg/kg/injection, schedule: Q01DX005 (ip), vehicle: Klucel (hydroxypropylcellulose) (HPC)) 121 % of control; (dose: 1.0 mg/kg/injection, schedule: Q01DX005 (ip), vehicle: Klucel (hydroxypropylcellulose) (HPC)) 117 % of control; (dose: 1.0 mg/kg/injection, schedule: Q01DX005 (ip), vehicle: saline with Tween-80) 118 % of control; (dose: 2.0 mg/kg/injection, schedule: Q01DX005 (ip), vehicle: saline with Tween-80) 121 % of control; (dose: 8.0 mg/kg/injection, schedule: Q01DX005 (ip), vehicle: Klucel (hydroxypropylcellulose) (HPC)) 152 % of control.
Turning to `NC(=O)C(Cc1ccccc1)NC(=O)C(CSCc1ccccc1)NC(=O)OCc1ccccc1` (stereo not drawn) (Cbz-Cys(Bn)-Phe-NH2; configuration not given here), the T/C reads like this: (dose: 12.5 mg/kg/injection, schedule: Q01DX005 (ip), vehicle: Klucel (hydroxypropylcellulose) (HPC)) 103 % of control; (dose: 25.0 mg/kg/injection, schedule: Q01DX005 (ip), vehicle: Klucel (hydroxypropylcellulose) (HPC)) 102 % of control; under setting [11], 86 % of control and 91 % of control.
With `O=C(N1CCN(C(=O)S(=O)(=O)c2ccccc2)CC1)S(=O)(=O)c1ccccc1`, the T/C was 92 % of control under setting [12], 100 % of control under setting [13] and 100 % of control under setting [14].
For `O=C1CCC(Cc2ccccc2)CN1` (stereo not drawn), the T/C was 97 % of control under setting [8], 101 % of control under setting [9] and 97 % of control under setting [10].
As for `BrC/C(=N\N=C(\CBr)c1ccc(Br)cc1)c1ccc(Br)cc1`, the T/C under setting [12] is 100 % of control, the T/C under setting [13] is 100 % of control and the T/C under setting [14] is 91 % of control.
On to `OCCN(CCO)C1c2ccccc2-c2ccccc21`, for which the T/C under setting [5] was 98 % of control, the T/C under setting [6] was 89 % of control and the T/C under setting [7] was 90 % of control.
On to `CO[C@H]1/C=C/O[C@@]2(C)Oc3c(C)c(O)c4c(O)c(c(/C=N/N5CCCN(Cc6ccccc6)CC5)c(O)c4c3C2=O)NC(=O)/C(C)=C\C=C\[C@H](C)[C@H](O)C(C)[C@@H](O)C(C)[C@H](OC(C)=O)[C@@H]1C` (stereo partly drawn), for which, for the setting “dose: 25.0 mg/kg/injection, schedule: Q01DX009 (ip), vehicle: suspension in saline”, the T/C was 107 % of control.
For `COc1ccccc1P(=S)(c1ccccc1)c1ccccc1`, the T/C was 99 % of control under setting [11], 99 % of control under setting [15] and 96 % of control under setting [16].
With `CC1(C)CC(Nc2ccccc2)=CC(=S)N1`, the T/C under setting [11] was 100 % of control, the T/C under setting [15] is 103 % of control and the T/C under setting [16] is 100 % of control.
As for `O=C(O)CCOCCC(=O)O`, the T/C is 97 % of control (dose: 50.0 mg/kg/injection, schedule: Q01DX005 (ip), vehicle: saline); 97 % of control (dose: 100.0 mg/kg/injection, schedule: Q01DX005 (ip), vehicle: saline); 97 % of control (dose: 200.0 mg/kg/injection, schedule: Q01DX005 (ip), vehicle: saline).
Turning to `c1ccc(-c2nc3ccccc3o2)cc1`, the T/C by setting is: under setting [4], 86 % of control; under setting [17], 98 % of control; under setting [1], 101 % of control; under setting [2], 88 % of control.
On to `CC(C)C(O)Cc1cc(=O)[nH]c2ccccc12` (stereo not drawn), for which the T/C was 87 % of control (dose: 100.0 mg/kg/injection, schedule: Q04DX002 (ip), vehicle: saline with Tween-80); 87 % of control (dose: 200.0 mg/kg/injection, schedule: Q04DX002 (ip), vehicle: saline with Tween-80); 86 % of control (dose: 400.0 mg/kg/injection, schedule: Q04DX002 (ip), vehicle: saline with Tween-80).
For `O=S(=O)(Nc1nccs1)c1ccc(Nc2c3ccccc3nc3ncccc23)cc1`, the T/C runs as follows: under setting [8], 93 % of control; under setting [9], 89 % of control.
On to `O=C(O)CCC(=O)NCCOC(=O)CCC(=O)O`, for which the T/C runs as follows: under setting [3], 99 % of control; (dose: 100.0 mg/kg/injection, schedule: Q01DX009 (ip), vehicle: saline) 104 % of control; (dose: 200.0 mg/kg/injection, schedule: Q01DX009 (ip), vehicle: saline) 106 % of control.
Consider `COC1/C=C/OC2(C)Oc3c(C)c(O)c4c(c3C2=O)C(=O)C([N+](=O)[O-])=C(NC(=O)C(C)=C/C=C\C(C)C(O)C(C)C(O)C(C)C(OC(C)=O)C1C)C4=O` (stereo not drawn), for which the T/C reads like this: under setting [13], 90 % of control; under setting [14], 98 % of control.
As for `FC(F)(F)SN1CN(SC(F)(F)F)CN(SC(F)(F)F)CN(SC(F)(F)F)C1`, the T/C is 103 % of control and 96 % of control (dose: 60.0 mg/kg/injection, schedule: Q01DX005 (ip), vehicle: saline); 96 % of control (dose: 120.0 mg/kg/injection, schedule: Q01DX005 (ip), vehicle: saline); 100 % of control (dose: 240.0 mg/kg/injection, schedule: Q01DX005 (ip), vehicle: saline).
Turning to `COCn1ncnc1C(=O)c1ccccc1`, the T/C was 97 % of control under setting [17], 98 % of control under setting [1] and 92 % of control under setting [2].
